# Experiment: Preclinical rat studies of CTT1403 kidney exposure
# Type: in vivo
# Description: CTT1403 localization in various organs is accomplished by estimating dosimetry using SPECT/CT or SPECT/MRI imaging of the radioisotope component (using the gamma particle emission) of CTT1403, ^177Lu, up to 8 days after the first dose. […] Preclinical studies in rats with CTT1403 identified the kidneys as the dose limiting organ. Table 2, below, summarizes kidney dosimetry calculated from the first 15 patients enrolled in the study after receipt of escalating doses of CTT1403 and contrasts it with the predicted kidney exposure from rat studies. […] Preclinical studies in rats estimated expected kidney exposure of ˜5.2 Gy/GBq. […] CTT1403 may be sequestered in tumors and under exposing the kidney.
smiles,measurement,setting,value
O=C(O)CC[C@H](NP(=O)(O)OCCC[C@H](NC(=O)CC[C@H](NC(=O)CCCCCNC(=O)CCC(NC(=O)CCOCCOCCOCCOCCNC(=O)CCC(=O)N1Cc2ccccc2-c2c(nnn2CCCNC(=O)CN2CCN3CCN4CCN(CC2)CC(=O)[O][177Lu]([O]C(=O)C3)[O]C(=O)C4)-c2ccccc21)C(=O)NC(CCCCNC(=O)CCCc1ccc(I)cc1)C(=O)O)C(=O)O)C(=O)O)C(=O)O (some centres unmarked) [CTT1403],dose limiting organ,preclinical studies in rats,kidneys
same,expected kidney exposure estimated from preclinical studies in rats,predicted human kidney exposure from rat studies,~5.2 Gy/GBq

# Reference: patent US20230064292A1, “METHODS OF TREATING PSMA-POSITIVE CANCER USING RADIONUCLIDE THERAPY” (priority 2020, published 2023)
